These results are taken from publication PMC6423129, “Activity and structural analysis of GRL-117C: a novel small molecule CCR5 inhibitor active against R5-tropic HIV-1s” (Scientific Reports, 2019).

Where only a bound is given, the exact number is not on record here.

Broadly, the IC50 is the concentration at which inhibition is half-maximal. High values mean weaker potency in that assay, low ones greater potency in that assay. Broadly, the IC90 is the concentration at which the effect reaches the 90% level. Low values mean an effect from little substance, high ones a need for much substance.

In experiment [1] the test system is HIV-1KP-5mvcR. As to the kind of experiment: TZM-bl single-round infection assay, MVC-resistant HIV-1KP-5mvcR. It is filed as cell-based. As to the method: (§1) MAGI-CCR5 cells[18] were maintained in DMEM supplemented with 10% fetal calf serum (FCS: Gemini Bio-Products, West Sacramento, CA), 200 μg/ml G418, 100 μg/ml hygromycin B, and 100 μg/ml zeomycin. The Chinese hamster ovary (CHO) cells expressing CCR5[19] were maintained in Ham’s F-12 medium (GIBCO-BRL, Rockville, MD) supplemented with 10% FCS, 50 U/ml penicillin, and 50 μg/ml streptomycin in the presence of 5 μg/ml blasticidin S hydrochloride. TZM-bl cells were obtained from the NIH AIDS Reagent Program, and were cultured in DMEM with 10% FCS. Peripheral blood mononuclear cells (PBMCs) were isolated from buffy coats of HIV-1 seronegative individuals, and were activated with 10 μg/ml phytohemagglutinin (PHA) prior to use[16]. A laboratory wild-type R5-HIV-1 strain (HIV-1Ba-L)[37] was employed for drug susceptibility assays. AD101 (experimental CCR5 inhibitor) and VVC-resistant HIV clones[7],[8] were provided by Dr. John P. Moore of Cornell University for this study. The clones were propagated with activated PBMCs, and were used for the assays. A clinical HIV-1 strain, HIV-1KP-5pc, and an MVC-resistant isolate, HIV-1KP-5mvcR, were prepared and used for antiviral assays, as previously described[10],[38]. The following reagents (plasmids) for T/F HIV-1 viruses[22],[24] were obtained through the NIH AIDS Reagent Program, Division of AIDS, NIAID, NIH: pCH040.c/2625 (cat# 11740), pCH106.c/2633 (cat# 11743), pTHRO.c/2626 (cat# 11745), and pCH058.c/2960 (cat# 11856), from Dr. John Kappes and Dr. Christina Ochsenbauer.
(§2) Antiviral assays using PHA-PBMCs (p24 assay) were conducted as previously reported[16],[38]. In brief, PHA-PBMCs (1 × 10^6/ml) were exposed to 50 TCID50 of HIV-1Ba-L or drug-resistant HIV-1 infectious clones in the presence or absence of various concentrations of drugs; 10-fold serial dilutions were performed in 96-well microculture plates. The amount of p24 antigens produced by the cells was determined on day 7 in the culture via a commercially available ELISA kit (PerkinElmer). The p24 production level in drug-free control cell cultures was used as the reference. […] Antiviral assays using MAGI-CCR5 cells (MAGI assay) were conducted as previously reported[16],[39]. Single-round virus infection assays using TZM-bl cells infected with R5-HIV-1s (HIV-1YU2, HIV-1KP-5pc, and HIV-1KP-5mvcR)[10] were also conducted as previously described.

In experiment [2] the test system is CC101.19 cl.7 (AD101 resistant). The experiment in a line: microbe, parasite or virus in culture. It is filed as cell-based, HIV-1. As to the method: as §1, §2
In experiment [3] the test system is D1/85.16 cl.23 (VVC resistant). The experiment in a line: microbe, parasite or virus in culture. It is filed as cell-based, HIV-1. Here is the method:
as §1, §2

Setting [4] is: Human immunodeficiency virus 1, TZM-bl.

On to `C=CCN(C(=O)OCc1ccc([N+](=O)[O-])cc1)C1CC2CCC(C1)N2CCC(C)(CN(C)S(=O)(=O)c1ccccc1)c1ccccc1` (stereo not drawn) [GRL-117C], for which, in experiment [1] (686 nM vs MVC 41 nM), the “IC50 against HIV-1KP-5mvcR relative to that of MVC” value was “more than 10 fold”. Further, the IC50 in experiment [1] (setting [4]) is 686 ± 89 nM; in experiment [2] (CC101.19 cl.7 (AD101 resistant)), 32.5 nM; in experiment [2] (Human immunodeficiency virus 1, CC101.19 cl.7 (AD101 resistant)), less than 40 nM; in experiment [3] (D1/85.16 cl.23 (VVC resistant)), 29.8 nM; in experiment [3] (Human immunodeficiency virus 1, D1/85.16 cl.23 (VVC resistant)), less than 40 nM. Besides, the IC90 in experiment [1] (setting [4]) was greater than 100 nM; in experiment [2] (Human immunodeficiency virus 1) it was 296 nM; in experiment [3] (Human immunodeficiency virus 1), 415 nM.
